The text below walks through data of US20250154121A1, “CYCLIC(ALKYL)(AMINO)ALKOXY-SUBSTITUTED ARYL-PYRONE COMPOUND AND USE THEREOF” (priority 2022, published 2025).

One series has as its system human coronavirus OC43. The class given is in vivo. The note with it: Table 6 (Example 17); 90 mg/kg/d gavage for 4 days.
For series [1], the system named is Human Coronavirus 229E (HCoV-229E). In words: animal or person. Type of series: in vivo.
Series [2] relates to Influenza A (H1N1) virus FM1 strain. In words: Mouse pneumonia model infected with influenza A (H1N1) virus FM1 strain (lung index). Type of series: in vivo, ICR mice. On the procedure:
ICR mice were taken and randomly divided into: normal control group, model control group, ribavirin control group, compound 4, compound F1, compound F2, and compound F3 according to their weight class, and each drug was given in two dosage groups (10 mice in each group). Except for the normal control group, mice were slightly anesthetized with ether and infected with 15 LD50 H1N1 influenza virus liquid FM1 strain by nasal drops (30 μl per animal). The administration was started on the day of infection at 0.2 ml/10 g by gavage each time once a day for 4 days, and the normal control and model control groups were gavaged with distilled water under the same conditions. The mice were weighed and dissected on Day 5, and the lung was weighed to calculate lung index and lung index inhibition. The results were statistically processed using t-test for comparison between groups.
(§1) ICR mice were taken and randomly divided by weight class: normal control group, model control group, oseltamivir control group, compound 4, compound F4, compound F5, compound 5, and compound 7 according to their weight class, and each drug was given in two dosage groups (10 mice in each group). Except for the normal control group, mice were slightly anesthetized with ether and infected with 15 LD50 H1N1 influenza virus liquid (FM1/PR8 strain) by nasal drops (30 μl per each animal). The administration was started on the day of infection at 0.2 ml/10 g by gavage each time once a day for 4 days, and the normal control and model control groups were gavaged with distilled water under the same conditions. The mice were weighed and dissected on Day 5, and lung was weighed to calculate lung index and lung index inhibition. The results were statistically processed using t-test for comparison between groups.
(§2) ICR mice were taken and randomly divided into 9 groups according to the body weight: a normal control group, model control group, oseltamivir control group, and two dosage groups of Compound 9, Compound 12 and Compound 2, 10 mice in each group. Except the normal control group, mice were slightly anesthetized with ether and infected with 15 LD50 H1N1/PR8 influenza virus liquid by nasal drops at 30 μl per mouse. The administration was started on the day of infection, at 0.2 ml/10 g each time by gavage once a day for 4 days, and the normal control and model control groups were gavaged with distilled water under the same conditions. The mice were weighed and dissected on Day 5, and lungs were weighed to calculate lung index and lung index inhibition. The results were statistically processed using t-test for comparison between groups.

Series [3] has as its system Influenza A (H1N1) virus PR8 strain. Description: Mouse pneumonia model infected with influenza A (H1N1) virus PR8 strain (lung index). The class given is in vivo, ICR mice. On the procedure: as §1, §2
Series [4] deals with Sendai strain of parainfluenza virus. The class given is in vivo.
Series [5] is described as follows: Acute toxicity test in mice (single gavage, 14-day observation). Type of series: in vivo. On the procedure:
Seventy ICR mice, weighing 17-21 g, were randomly divided into 7 groups according to fasting body weight: a normal control group and 6 dose groups of 475, 633, 844, 1125, 1500 and 2000 mg of the test drug (compound 4)/kg, 10 mice in each group, 50/50 male and female. After fasting for about 15 h, each dosing group was administered once by gavage in a volume of 40 ml/kg, and the control group was gavaged with an equal volume of 0.5% sodium carboxymethylcellulose solution once/day, and the animals were observed continuously for 14 days after administration of the drug to observe the death of the animals.
Thirty ICR mice, weighing 17-21 g, were randomly divided into three groups according to their fasting body weight: a normal control group and 2000 mg and 4000 mg of test drug (Compound 12)/kg dose group, 10 mice in each group, 50/50 male and female. After fasting for about 15 h, each dosing group was given the drug once by gavage in a volume of 40 ml/kg, and the control group was given an equal volume of 0.5% sodium carboxymethylcellulose solution by gavage once/day, and the deaths of the animals were observed continuously for 14 days after the administration of the drug.

Setting [6] is: Table 13 (Example 25), 7.5 mg/kg/d gavage for 4 days.
[7] abbreviates: Table 13 (Example 25), 15 mg/kg/d gavage for 4 days.
Where [8] appears, read: Table 12 (Example 25), 7.5 mg/kg/d gavage for 4 days.
Setting [9] is: Table 12 (Example 25), 15 mg/kg/d gavage for 4 days.
[10] abbreviates: Table 11 (Example 24), 7.5 mg/kg/d gavage for 4 days.
The mark [11] stands for this setting: Table 11 (Example 24), 15 mg/kg/d gavage for 4 days.
Where [12] appears, read: Table 3 (Example 14), 27.5 mg/kg gavage once a day for 4 days.
Setting [13] is: Table 7 (Example 18), 82.5 mg/kg/d gavage for 4 days.
[14] abbreviates: Table 11 (Example 24), 82.5 mg/kg/d gavage for 4 days.

Where two headings read alike, the source gives them in different places.

Turning to `CCN(CC)CCCC(C)Nc1ccnc2cc(Cl)ccc12` (centres unmarked) [Chloroquine, chloroquine phosphate, reference compound], the “inhibition rate %” value with human coronavirus OC43 stood at 42.72%. For the same compound, the lung index in the series with human coronavirus OC43 is 0.80 ± 0.05 g lung weight × 100/g body weight; in series [1] (Table 4 (Example 15), 90 mg/kg/d gavage for 4 days) it was 0.78 ± 0.04 g lung weight × 100/g body weight; in series [1] (Table 5 (Example 16), 90 mg/kg/d gavage for 4 days) it was 0.70 ± 0.04 g lung weight × 100/g body weight; in series [1] (Table 10 (Example 23), 90 mg/kg/d gavage for 4 days) it was 0.80 ± 0.02 g lung weight × 100/g body weight; in series [1] (Table 14 (Example 26), 90 mg/kg/d gavage for 4 days) it was 0.83 ± 0.05 g lung weight × 100/g body weight. Besides, the inhibition in vivo at 90 mg/kg/day was 31.3% in series [1] (Human coronavirus 229E, in Mus musculus, po, 96 h, read-out: inhibition rate (%), Table 4 (Example 15), 90 mg/kg/d gavage for 4 days); 56.2% in series [1] (Human coronavirus 229E, in Mus musculus, po, 96 h, read-out: inhibition rate (%), Table 5 (Example 16), 90 mg/kg/d gavage for 4 days); 52.9% in series [1] (Human coronavirus 229E, in Mus musculus, po, 96 h, read-out: inhibition rate (%), Table 10 (Example 23), 90 mg/kg/d gavage for 4 days); 62.8% in series [1] (Human coronavirus 229E, in Mus musculus, po, 96 h, read-out: inhibition rate (%), Table 14 (Example 26), 90 mg/kg/d gavage for 4 days).

`COc1ccc(-c2coc3cc(OCCNC4CC4)ccc3c2=O)cc1` [Compound 2]: the inhibition rate % is listed as 26.60% in series [2] (setting [6]); 72.90% in series [2] (setting [7]); 99.05% in series [3] (setting [8]); 60.90% in series [3] (setting [9]); −18.32% in series [4] (setting [10]); 3.27% in series [4] (setting [11]). Moreover, the lung index in series [2] (setting [6]) is recorded as 0.77 ± 0.074 Lung weight * 100/body weight; in series [2] (setting [7]), 0.73 ± 0.060 Lung weight * 100/body weight; in series [3] (setting [8]), 0.70 ± 0.110 Lung weight * 100/body weight; in series [3] (setting [9]) it was 0.74 ± 0.091 Lung weight * 100/body weight; in series [4] (setting [10]), 0.86 ± 0.04 Lung weight * 100/body weight; in series [4] (setting [11]), 0.84 ± 0.07 Lung weight * 100/body weight.

As for `CN(CCOc1ccc2c(=O)c(-c3ccccc3)coc2c1)C1CC1` [Compound 9], the inhibition rate % in series [2] (setting [6]) is on record as 79.57%; in series [2] (setting [7]) it was 84.63%; in series [3] (setting [8]), 58.71%; in series [3] (setting [9]), 91.64%; in series [4] (setting [10]), 40.51%; in series [4] (setting [11]) it was 55.59%. Also, the lung index is 0.72 ± 0.069 Lung weight * 100/body weight in series [2] (setting [6]); 0.71 ± 0.052 Lung weight * 100/body weight in series [2] (setting [7]); 0.81 ± 0.10 g lung weight × 100/g body weight in series [1] (Table 10 (Example 23), 7.5 mg/kg/d gavage for 4 days); 0.74 ± 0.046 Lung weight * 100/body weight in series [3] (setting [8]); 0.71 ± 0.060 Lung weight * 100/body weight in series [3] (setting [9]); 0.79 ± 0.05 Lung weight * 100/body weight in series [4] (setting [10]). The lung index in series [4] (setting [11]) was 0.77 ± 0.05 Lung weight * 100/body weight. The inhibition in vivo at 7.5 mg/kg/day in series [1] (Human coronavirus 229E, in Mus musculus, po, 96 h, Table 10 (Example 23), 7.5 mg/kg/d gavage for 4 days, read-out: inhibition rate (%)) came out at 46.5%.

As to `CC(C)N(CCOc1ccc2c(=O)c(-c3ccccc3)coc2c1)C1CC1` [Compound 12], the inhibition rate % in series [2] (setting [6]) stood at 70.82%; in series [2] (setting [7]) it was 93.59%; in series [3] (setting [8]), 63.78%; in series [3] (setting [9]), 76.54%; in series [4] (setting [10]), 57.49%; in series [4] (setting [11]) it was 61.91%. Moreover, the lung index in series [2] (setting [6]) is 0.73 ± 0.070 Lung weight * 100/body weight; in series [2] (setting [7]), 0.71 ± 0.042 Lung weight * 100/body weight; in series [1] (Table 14 (Example 26), 7.5 mg/kg/d gavage for 4 days), 0.86 ± 0.04 g lung weight × 100/g body weight; in series [1] (Table 14 (Example 26), 15 mg/kg/d gavage for 4 days) it was 0.82 ± 0.07 g lung weight × 100/g body weight; in series [3] (setting [8]) it was 0.74 ± 0.091 Lung weight * 100/body weight; in series [3] (setting [9]), 0.72 ± 0.076 Lung weight * 100/body weight. Further, the lung index is listed as 0.77 ± 0.04 Lung weight * 100/body weight in series [4] (setting [10]) and 0.76 ± 0.03 Lung weight * 100/body weight in series [4] (setting [11]). In addition, the animal deaths entry in series [5] (2000 and 4000 mg of the drug/kg single gavage, 14 days observation) was “No animals died”. For the same compound, the “maximum concentration that could be administered by gavage, with no death of the animals” value in series [5] (acute toxicity, mice) amounted to 4000 mg/kg. In addition, the inhibition in vivo at 7.5 mg/kg/day in series [1] (Human coronavirus 229E, in Mus musculus, po, 96 h, Table 14 (Example 26), 7.5 mg/kg/d gavage for 4 days, read-out: inhibition rate (%)) turned out to be 39.8%. For the same compound, in series [1] (Human coronavirus 229E, in Mus musculus, po, 96 h, Table 14 (Example 26), 15 mg/kg/d gavage for 4 days, read-out: inhibition rate (%)), the inhibition in vivo at 15 mg/kg/day amounted to 68.4%.

Consider `NC(=O)c1ncn([C@@H]2O[C@H](CO)[C@@H](O)[C@H]2O)n1` [Ribavirin, ribavirin, reference compound], for which the inhibition in vivo at 82.5 mg/kg in series [2] (Influenza A virus, H1N1, po, 96 h, Table 1 (Example 13), 82.5 mg/kg gavage once a day for 4 days, read-out: inhibition rate (%)) is 49.6%. Further, the lung index is 0.96 ± 0.16 in series [2] (Table 1 (Example 13), 82.5 mg/kg gavage once a day for 4 days); 0.84 ± 0.10 in series [3] (setting [12]); 0.70 ± 0.03 lung weight/100 g body weight in series [4] (setting [13]); 0.77 ± 0.04 Lung weight * 100/body weight in series [4] (setting [14]). Besides, the “inhibition rate %” value is given as 58.89% in series [3] (setting [12]), 42.06% in series [4] (setting [13]) and 57.66% in series [4] (setting [14]).
